Experimental data as given in patent US12540150B1, “Fluorogenic probe using a Mislow-Evans rearrangement for real-time imaging of hydrogen peroxide” (University of Pittsburgh—Of the Commonwealth System of …, priority 2020, dated 2026).
“And” between values parts separate entries of the source, which are not always exact repeats. Identical values can stand only once.

Assays:
[1] = Kinetics of the reaction of 1 with H2O2
zebrafish = assay: Zebrafish tail wound-healing model imaging of H2O2; type: in vivo; settings: three-day post-fertilization zebrafish embryos, 1 mM 1 for 2 h
Source text: H2O2 has been recognized as a critical signaling molecule for the recruitment of immune cells for wound regeneration. To date, only genetically encoded protein-based fluorescent probes have been able to illuminate the spatiotemporal dynamics of H2O2 for wound healing models in zebrafish. It was hypothesized that our method might be rapid enough to match the protein-based imaging in vivo. As a platform to test this hypothesis, 1 was applied to image a zebrafish tail wound-healing model.
Three-day post-fertilization zebrafish embryos were removed from their chorion and allowed to swim in 1 mM 1 for 2 h (0.1% v/v DMSO), leading to effective dye loading. Following this, the fish were anesthetized and mounted in agar. The tail fins were clipped with a razor blade.
Fluorescence images were obtained every 60 s for 60 min using an inverted Nikon TiE fluorescent microscope (Nikon Inc., Melville, NY) equipped with a 20× 0.75 NA lens and NIS Elements Software. The sample was excited using the 470 nm line of a Lumencor diode-pumped light engine (SpectraX, Lumencor Inc., Beaverton OR), and the fluorescence signals were detected using an ET-GFP filter set (Chroma Technology Corp) and ORCA-Flash 4.0 sCMOS camera (HAMAMATSU Corporation, Bridgewater, NJ).

endothelial cells = assay: Localization of 1 in endothelial cells with MitoTracker Red, ionomycin stimulation; type: cell-based; settings: ionomycin 10 μM
Experimental: To study the localization of 1, endothelial cells were simultaneously incubated with 1 μM MitoTracker® Red FM (ThermoFisher Scientific) for 20 min at 37° C. (FIG. 24D). The dish was inserted in a closed, thermo-controlled (37° C.) stage top incubator (Tokai Hit Co., Shizuoka-ken, Ja-pan) atop the motorized stage of an inverted Nikon TiE fluorescent microscope (Nikon Inc., Melville, NY) equipped with a 60× oil immersion optic (Nikon, CFI PlanFluor, NA 1.49) and NIS Elements Software. The sample was excited using the 555 nm line and detected using a TRITC filter set.

## Oc1ccc2c(c1)Oc1cc(O/C=C/C[Se]c3ccccc3)ccc1[C@@]21OCc2ccccc21 [Compound 1, (S,E)-6′-((3-(Phenylselanyl)prop-1-en-1-yl)oxy)-3H-spiro[isobenzofuran-1,9′-xanthen]-3′-ol]
[1]; [H2O2] = 0.625 mM, 510 s
  F-F0 (515 nm): 501,767 and 546,290 and 569,868
  [1]: 0.4316 µM and 0.3173 µM and 0.2568 µM
[1]; [H2O2] = 0.625 mM, 570 s
  F-F0 (515 nm): 524,121 and 550,122 and 581,518
  [1]: 0.3742 µM and 0.3075 µM and 0.2269 µM
[1]; [H2O2] = 0.625 mM, 630 s
  F-F0 (515 nm): 543,908 and 551,490 and 591,076
  [1]: 0.3234 µM and 0.3040 µM and 0.2024 µM
[1]; [H2O2] = 0.625 mM, 690 s
  F-F0 (515 nm): 559,985 and 551,741 and 599,176
  [1]: 0.2822 µM and 0.3033 µM and 0.1816 µM
[1]; [H2O2] = 0.625 mM, 750 s
  F-F0 (515 nm): 570,897 and 553,475 and 603,780
  [1]: 0.2542 µM and 0.2989 µM and 0.1698 µM
[1]; [H2O2] = 0.625 mM, 810 s
  F-F0 (515 nm): 580,693 and 553,568 and 609,902
  [1]: 0.2290 µM and 0.2986 µM and 0.1541 µM
[1]; [H2O2] = 0.625 mM, 870 s
  F-F0 (515 nm): 587,536 and 552,326 and 614,108
[1]; [H2O2] = 1.25 mM, 30 s
  F-F0 (515 nm): 255,659 and 258,915 and 225,047
  [1]: 1.0631 µM and 1.0547 µM and 1.1417 µM
[1]; [H2O2] = 1.25 mM, 90 s
  F-F0 (515 nm): 364,712 and 517,271 and 484,926
  [1]: 0.7833 µM and 0.3918 µM and 0.4748 µM
[1]; [H2O2] = 1.25 mM, 150 s
  F-F0 (515 nm): 463,364 and 607,290 and 590,662
[1]; [H2O2] = 1.25 mM, 210 s
  F-F0 (515 nm): 514,663 and 641,798 and 639,332
[1]; [H2O2] = 1.25 mM, 270 s
  F-F0 (515 nm): 549,297 and 656,229 and 660,178
[1]; [H2O2] = 1.25 mM, 330 s
  F-F0 (515 nm): 572,635 and 661,539 and 664,254
[1]; [H2O2] = 1.25 mM, 390 s
  F-F0 (515 nm): 589,797 and 665,178 and 666,753
[1]; [H2O2] = 1.25 mM, 450 s
  F-F0 (515 nm): 601,493 and 663,842 and 669,367
[1]; [H2O2] = 1.25 mM, 510 s
  F-F0 (515 nm): 606,377 and 663,608 and 673,539
[1]; [H2O2] = 1.25 mM, 570 s
  F-F0 (515 nm): 612,207 and 662,594 and 675,671
[1]; [H2O2] = 1.25 mM, 630 s
  F-F0 (515 nm): 614,405 and 663,947 and 677,477
[1]; [H2O2] = 1.25 mM, 690 s
  F-F0 (515 nm): 616,203 and 663,123 and 679,640
[1]; [H2O2] = 1.25 mM, 750 s
  F-F0 (515 nm): 616,371 and 663,595 and 679,888
[1]; [H2O2] = 1.25 mM, 810 s
  F-F0 (515 nm): 614,783 and 663,765 and 683,016
[1]; [H2O2] = 1.25 mM, 870 s
  F-F0 (515 nm): 614,819 and 662,173 and 685,799
[1]; [H2O2] = 2.5 mM, 30 s
  F-F0 (515 nm): 425,024 and 405,551 and 398,309
  [1]: 0.6285 µM and 0.6785 µM and 0.6971 µM
[1]; [H2O2] = 2.5 mM, 90 s
  F-F0 (515 nm): 539,467 and 612,814 and 630,136
[1]; [H2O2] = 2.5 mM, 150 s
  F-F0 (515 nm): 601,940 and 657,981 and 671,946
[1]; [H2O2] = 2.5 mM, 210 s
  F-F0 (515 nm): 627,168 and 666,435 and 680,181
[1]; [H2O2] = 2.5 mM, 270 s
  F-F0 (515 nm): 636,230 and 665,190 and 679,366
[1]; [H2O2] = 2.5 mM, 330 s
  F-F0 (515 nm): 638,753 and 666,173 and 674,138
[1]; [H2O2] = 2.5 mM, 390 s
  F-F0 (515 nm): 641,141 and 663,899 and 664,993
[1]; [H2O2] = 2.5 mM, 450 s
  F-F0 (515 nm): 640,270 and 661,893 and 664,416
[1]; [H2O2] = 2.5 mM, 510 s
  F-F0 (515 nm): 639,383 and 659,509 and 664,003
[1]; [H2O2] = 2.5 mM, 570 s
  F-F0 (515 nm): 637,346 and 658,746 and 663,104
[1]; [H2O2] = 2.5 mM, 630 s
  F-F0 (515 nm): 637,422 and 656,826 and 661,222
[1]; [H2O2] = 2.5 mM, 690 s
  F-F0 (515 nm): 636,174 and 654,911 and 659,002
[1]; [H2O2] = 2.5 mM, 750 s
  F-F0 (515 nm): 634,294 and 654,494 and 657,410
[1]; [H2O2] = 2.5 mM, 810 s
  F-F0 (515 nm): 631,953 and 653,606 and 654,988
[1]; [H2O2] = 2.5 mM, 870 s
  F-F0 (515 nm): 631,346 and 651,140 and 655,338
zebrafish
  time of maximum fluorescence after tail snipping: 10 to 20 min
Endothelial cells
  time after the addition of ionomycin of first image showing increased fluorescence: ≤ 8 s
